Values quoted from earlier work as cited in patent US20240207206A1, “Improved Topical Composition of Colchicine” (Zenvision Pharma LLP, priority 2019, published 2024).

Settings: in water

For COc1cc2c(c(OC)c1OC)-c1ccc(OC)c(=O)cc1[C@@H](NC(C)=O)CC2 [Colchicine, (S)N-(5,6,7,9-tetrahydro-1,2,3, 10-tetramethoxy-9-oxobenzo[alpha]heptalen-7-yl) acetamide], the Solubility is given as “soluble in water”.
